We go through 3 compounds from ChEMBL document CHEMBL1687845, “Carotenoid-related alteration of cell membrane fluidity impacts Staphylococcus aureus susceptibility to host defense peptides” (2011).

Values after ≈ are worked out from the molar mass of the structure shown.

The subject of assay [1] is Staphylococcus aureus. The experiment in a line: Antibacterial activity against wild type methicillin-susceptible Staphylococcus aureus SA144 by Etest. Format: functional.
The subject of assay [2] is Staphylococcus aureus. The experiment in a line: Antibacterial activity against methicillin-susceptible Staphylococcus aureus SA145 harboring crtM deletion mutant by Etest. The assay is classed as functional.
Assay [3] concerns Staphylococcus aureus. The experiment in a line: Antibacterial activity against methicillin-susceptible Staphylococcus aureus SA146 harboring deltacrtM-pDCerm by Etest. Format: functional.
The subject of assay [4] is Staphylococcus aureus. The experiment in a line: Antibacterial activity against methicillin-susceptible Staphylococcus aureus SA147 harboring deltacrtM-pDCerm::crtMN by Etest. Format: functional.
Assay [5] deals with Staphylococcus aureus. The experiment in a line: Ratio of MIC for methicillin-susceptible Staphylococcus aureus SA147 harboring deltacrtM-pDCerm::crtMN to MIC for wild type methicillin-susceptible Staphylococcus aureus SA144. Format: functional.
Assay [6] relates to Staphylococcus aureus. The experiment in a line: Antibacterial activity against wild type methicillin-susceptible Staphylococcus aureus SA144 assessed as bacterial survival at 1.25 ug/ml after 2 hrs. The assay is classed as functional. The settings on record: SA144, 2 h.
The subject of assay [7] is Staphylococcus aureus. The assay can be described thus: Antibacterial activity against wild type methicillin-susceptible Staphylococcus aureus SA144 assessed as bacterial survival at 0.625 ug/ml after 2 hrs. The assay is classed as functional. The settings on record: SA144, 2 h.
Assay [8] deals with Staphylococcus aureus. The experiment in a line: Antibacterial activity against methicillin-susceptible Staphylococcus aureus SA145 harboring crtM deletion mutant assessed as bacterial survival at 1.25 ug/ml after 2 hrs. The assay is classed as functional. The settings on record: SA145, 2 h.
The test system of assay [9] is Staphylococcus aureus. The assay can be described thus: Antibacterial activity against methicillin-susceptible Staphylococcus aureus SA145 harboring crtM deletion mutant assessed as bacterial survival at 0.625 ug/ml after 2 hrs. The assay is classed as functional. The settings on record: SA145, 2 h.
Assay [10] has as its system Staphylococcus aureus. The assay can be described thus: Antibacterial activity against methicillin-susceptible Staphylococcus aureus SA147 harboring deltacrtM-pDCerm::crtMN assessed as bacterial survival at 1.25 ug/ml after 2 hrs. Format: functional. The settings on record: SA147, 2 h.
For assay [11], the system named is Staphylococcus aureus. The assay can be described thus: Antibacterial activity against methicillin-susceptible Staphylococcus aureus SA147 harboring deltacrtM-pDCerm::crtMN assessed as bacterial survival at 0.625 ug/ml after 2 hrs. The assay is classed as functional. The settings on record: SA147, 2 h.
The test system of assay [12] is Staphylococcus aureus. The assay can be described thus: Antibacterial activity against wild type methicillin-susceptible Staphylococcus aureus SA144 assessed as bacterial survival at 5 ug/ml after 2 hrs. Format: functional. The settings on record: SA144, 2 h.
The test system of assay [13] is Staphylococcus aureus. The experiment in a line: Antibacterial activity against wild type methicillin-susceptible Staphylococcus aureus SA144 assessed as bacterial survival at 2.5 ug/ml after 2 hrs. The assay is classed as functional. The settings on record: SA144, 2 h.
The subject of assay [14] is Staphylococcus aureus. The assay can be described thus: Antibacterial activity against methicillin-susceptible Staphylococcus aureus SA145 harboring crtM deletion mutant assessed as bacterial survival at 5 ug/ml after 2 hrs. Format: functional. The settings on record: SA145, 2 h.
Assay [15] concerns Staphylococcus aureus. The experiment in a line: Antibacterial activity against methicillin-susceptible Staphylococcus aureus SA145 harboring crtM deletion mutant assessed as bacterial survival at 2.5 ug/ml after 2 hrs. The assay is classed as functional. The settings on record: SA145, 2 h.
For assay [16], the system named is Staphylococcus aureus. The assay can be described thus: Antibacterial activity against methicillin-susceptible Staphylococcus aureus SA147 harboring deltacrtM-pDCerm::crtMN assessed as bacterial survival at 5 ug/ml after 2 hrs. The settings on record: SA147, 2 h. The assay is classed as functional.
For assay [17], the system named is Staphylococcus aureus. The experiment in a line: Antibacterial activity against methicillin-susceptible Staphylococcus aureus SA147 harboring deltacrtM-pDCerm::crtMN assessed as bacterial survival at 2.5 ug/ml after 2 hrs. Format: functional. The settings on record: SA147, 2 h.
Assay [18] relates to Staphylococcus aureus. The experiment in a line: Antibacterial activity against wild type methicillin-susceptible Staphylococcus aureus SA144 assessed as bacterial survival at 80 ug/ml after 2 hrs. Format: functional, organism-based.
Assay [19] deals with Staphylococcus aureus. The assay can be described thus: Antibacterial activity against wild type methicillin-susceptible Staphylococcus aureus SA144 assessed as bacterial survival at 40 ug/ml after 2 hrs. The assay is classed as functional, organism-based.
In assay [20] the test system is Staphylococcus aureus. The assay can be described thus: Antibacterial activity against methicillin-susceptible Staphylococcus aureus SA145 harboring crtM deletion mutant assessed as bacterial survival at 80 ug/ml after 2 hrs. Format: functional, organism-based.
In assay [21] the test system is Staphylococcus aureus. The assay can be described thus: Antibacterial activity against methicillin-susceptible Staphylococcus aureus SA145 harboring crtM deletion mutant assessed as bacterial survival at 40 ug/ml after 2 hrs. The assay is classed as functional, organism-based.
For assay [22], the system named is Staphylococcus aureus. The assay can be described thus: Antibacterial activity against methicillin-susceptible Staphylococcus aureus SA147 harboring deltacrtM-pDCerm::crtMN assessed as bacterial survival at 80 ug/ml after 2 hrs. Format: functional, organism-based.
The test system of assay [23] is Staphylococcus aureus. The assay can be described thus: Antibacterial activity against methicillin-susceptible Staphylococcus aureus SA147 harboring deltacrtM-pDCerm::crtMN assessed as bacterial survival at 40 ug/ml after 2 hrs. The assay is classed as functional, organism-based.

Consider `CCCCCCCCCC(=O)N[C@@H](Cc1c[nH]c2ccccc12)C(=O)N[C@H](CC(N)=O)C(=O)N[C@@H](CC(=O)O)C(=O)N[C@@H]1C(=O)NCC(=O)N[C@@H](CCCN)C(=O)N[C@@H](CC(=O)O)C(=O)N[C@H](C)C(=O)N[C@@H](CC(=O)O)C(=O)NCC(=O)N[C@H](CO)C(=O)N[C@@H]([C@H](C)CC(=O)O)C(=O)N[C@@H](CC(=O)c2ccccc2N)C(=O)O[C@@H]1C`, for which the MIC in the assay with Staphylococcus aureus [1] is 0.75 µg/mL (≈ 0.463 µM); with Staphylococcus aureus [2], 0.75 µg/mL (≈ 0.463 µM); in the assay on Staphylococcus aureus [3] it was 0.75 µg/mL (≈ 0.463 µM); in the assay on Staphylococcus aureus [4], 1.5 µg/mL (≈ 0.926 µM). Further, in the assay on Staphylococcus aureus [5], the Ratio was 2. Besides, the figures for the survival at 1.25 µg/mL with Staphylococcus aureus [6], in the assay on Staphylococcus aureus [8] and in the assay with Staphylococcus aureus [10] were 12%, 21% and 49%, respectively. Also, the survival at 0.625 µg/mL in the assay on Staphylococcus aureus [7] worked out at 18%; in the assay with Staphylococcus aureus [9], 24%; in the assay with Staphylococcus aureus [11] it was 55%.
Consider H-ALYKKFKKKLLKSLKRLG-OH, for which the survival at 5 µg/mL in the assay with Staphylococcus aureus [12] came to 11%; in the assay with Staphylococcus aureus [14], 13%; in the assay on Staphylococcus aureus [16], 23%. Also, the survival at 2.5 µg/mL with Staphylococcus aureus [13] was 23%; in the assay on Staphylococcus aureus [15] it was 18%; in the assay with Staphylococcus aureus [17] it was 55%.
In the case of POLYMYXIN B, the Survival turned out to be 13% in the assay on Staphylococcus aureus [18]; 29% in the assay with Staphylococcus aureus [19]; 14% in the assay with Staphylococcus aureus [20]; 23% in the assay on Staphylococcus aureus [21]; 26% in the assay on Staphylococcus aureus [22]; 25% with Staphylococcus aureus [23].
